According to patent US10208351B2, “RNY-derived small RNAs as biomarkers for atherosclerosis-related disorders” (INSTITUT NATIONAL DE LA SANTE ET DE LA RECHERCHE MEDICALE …, priority 2013, dated 2019):

Tests used:
[1] = system: potential s-RNYs-target mRNAs; test: Quantitative RT-PCR of potential s-RNYs-target mRNAs in PA-treated BMDMs; type: cell-based, mouse; settings: of 32 mRNAs (about 62%), FIG. 11
Method: FIG. 11: Quantitative RT-PCR analysis of the potential s-RNYs-target mRNAs in BMDMs transfected with siAgo2, 2′-OMe-RNA antisense oligonucleotides (AS) to s-RNYs, or control. BMDMs were left unstimulated (black column) or stimulated with 0.25 mM of PA for 18 hr, and total RNA was isolated and analyzed. Data were normalized by U2 snRNA and are presented as mean and s.d. (n=6).
BMDMs and NIH-3T3 cells (ATCC) were transiently transfected for 48 hr with Lipofectamine 2000 (Invitrogen) according to the manufacturer's instructions. siRNAs were transfected at the final concentration of 24 nM, while 2′-OMe-RNA antisense oligonucleotides to s-RNYs (Eurogentec) were transfected at the final concentration of 100 nM. […]
RNA expression by quantitative RT-PCR was carried out by using standard procedures. […] For s-RNYs detection by quantitative RT-PCR a stem-loop quantitative RT-PCR method was used according to Chen et al. (Chen, C., et al. (2005). Nucleic acids research 33, e179). […] This method allows the detection of the s-RNYs derived from only the 5′ end of the precursor by quantitative RT-PCR analysis, namely the s-RNY1-5p and s-RNY3-5p from mouse and s-RNY1-5p, s-RNY3-5p, and s-RNY4-5p from human. Quantitative RT-PCRs using Sybr Green and TaqMan (Invitrogen) for cel-miR-39 were performed on a StepONE system (Applied Biosystem). […]

p38, NF-κB, JNK = test: p38, NF-κB and JNK signaling activation in BMDMs; type: cell-based, mouse; settings: time course, data not shown
Method: BMDMs and NIH-3T3 cells (ATCC) were transiently transfected for 48 hr with Lipofectamine 2000 (Invitrogen) according to the manufacturer's instructions. siRNAs were transfected at the final concentration of 24 nM, while 2′-OMe-RNA antisense oligonucleotides to s-RNYs (Eurogentec) were transfected at the final concentration of 100 nM. When required, cell lysates were incubated at room temperature with RNase A (10 mg/ml, Ambion) for 30 min. Three-hundred micrograms of protein was immunoprecipitated with Protein A-Dynabeads (Invitrogen)-coupled antibodies for 16 hr at 4° C. with rotation. Immunoprecipitates were washed four times with lysis buffer and resuspended in SDS protein loading buffer. Proteins were subjected to SDS-PAGE, electroblotted onto PVDF membranes, and probed with different antibodies as indicated.
Recombinant Ago2 and hnRNP A1 were purchased from Sino Biological Inc. and CliniSciences, respectively, while recombinant KSRP was a gift from Dr. R. Gherzi. Mouse monoclonal anti-hnRNP A1 (4B10), mouse monoclonal anti-c-Myc (9E10), goat anti-actin (1-19), and IκBα (H-4) antibodies were purchased from SantaCruz. Rabbit anti-La/SSB and anti-Ro60 (TROVE2) antibodies were purchased from GmbH. Anti-Ago2 antibody was purchased from Wako Chemicals while rabbit anti-KLF2 and anti-NOS2A antibodies were from Millipore. Anti-KSRP antibody was a gift from Dr. R. Gherzi. […]

BMDMs [2] = test: Quantitative RT-PCR of s-RNYs from the medium of BMDMs; type: cell-based, mouse; settings: 0.25 mM PA 18 hr, FIG. 14B
Method: FIG. 14: (A) Quantitative RT-PCR analysis of the indicated s-RNYs in BMDMs incubated with 0.25 mM of PA the indicated time. The data were normalized by U2 snRNA. (B) Quantitative RT-PCR analysis of the indicated s-RNYs from the medium of BMDMs. Cells were left unstimulated or incubated with 0.25 mM PA for 18 hr. Data were normalized by using the synthetic non-mammalian cel-miR-39, which was added to the samples before the RNA extraction. Data are presented as mean and s.d. (n=8).
RNA expression by quantitative RT-PCR was carried out by using standard procedures. Briefly, for mRNA, total RNA was isolated from cells using Trizol and cDNA was synthesized with a random hexonucleotides using Superscript III (Invitrogen). For s-RNYs detection by quantitative RT-PCR a stem-loop quantitative RT-PCR method was used according to Chen et al. (Chen, C., et al. (2005). Nucleic acids research 33, e179). Briefly, total RNA was isolated from cells, tissue, or immunoprecipitation using Trizol (Invitrogen) according to the manufacturer's instructions. […] This method allows the detection of the s-RNYs derived from only the 5′ end of the precursor by quantitative RT-PCR analysis, namely the s-RNY1-5p and s-RNY3-5p from mouse and s-RNY1-5p, s-RNY3-5p, and s-RNY4-5p from human. Quantitative RT-PCRs using Sybr Green and TaqMan (Invitrogen) for cel-miR-39 were performed on a StepONE system (Applied Biosystem). […]

[3] = system: s-RNY1-3p binding sites (BS) from KFL2 mRNA sequence in NIH-3T3 cells; test: Luciferase reporter assay with s-RNY1-3p binding sites from KLF2 mRNA; type: cell-based; settings: PA treatment, FIG. 12C
Text: FIG. 12: (A) RNA duplex expected to result from base pairing of KFL2 mRNA with s-RNY1-3p. A-U and G-C base pairs are represented by solid lines; G-U wobble base pairs are represented by dotted lines, shown herein as SEQ ID NOS 58 and 59, respectively. (B) The sequence of the predicted target site of KFL2 mRNA from the indicated species, shown herein as SEQ ID NOS 60-63, respectively. The s-RNY1-3p seed complementary sequence is enclosed by a black box. Nucleotide conservation across the species is indicated by asterisks. (C) Relative luciferase activity of reporter constructs containing two either wt or mutant s-RNY1-3p binding sites (BS) from KFL2 mRNA sequence in NIH-3T3 cells transfected with either 2′-OMe-RNA antisense oligonucleotide to s-RNY1-3p or control. Cells were left unstimulated or stimulated with 0.25 mM of PA for 18 hr. The data were normalized using Renilla activity. Data are presented as mean and s.d. (n=4). Student's t-test: **P<0.01.
NIH-3T3 cells (80% confluence in 96-well plates) were transfected with Lipofectamine 2000® according to the manufacturer's instructions. Luciferase reporter assay was performed as previously described (Repetto, E., et al. (2012). PLoS genetics 8, e1002823).

BMDMs [4] = test: Apoptosis assay in BMDMs (annexin V / Dapi, flow cytometry); type: cell-based, mouse; settings: FIGS. 13A and 13B
Method: FIG. 13: Apoptotic data by fluorocytometry for BMDMs overexpressing s-RNYs, transfected with either 2′-OMe-RNA antisense oligonucleotides to s-RNYs or control. BMDMs were stimulated with 0.25 mM of PA for 18 hr (A), 0.25 μM thapsigargin (Tg) in combination with […] of oxLDL for 28 hr (B), or left unstimulated (C). Percentage of apoptotic and necrotic cells was determined by staining with Dapi and annexin […]. Data are presented as mean and s.d. (n=3). Apoptosis was assayed in BMDMs by staining with Alexa 488-conjugated annexin V and Dapi as previously described (Jacquel, A., et al., 2012. Blood 119(19): 4527-4531). The number of annexin V- and Dapi-positive cells was counted and expressed as a percent of the total number of cells from duplicate wells.

[5] = system: bone marrow-derived macrophages (BMDMs); test: s-RNY expression in stimulated BMDMs, stem-loop quantitative RT-PCR; type: cell-based, mouse; settings: for s-RNY expression: stimulus given alone
[6] = system: bone marrow-derived macrophages (BMDMs); test: as above; type: cell-based, mouse; settings: in combination with thapsigargin (ER stress)
Method: Bone marrow cells were collected from femurs and tibias of ten-week-old male C57BL/6J mice by flushing with sterile medium as previously described (T. Ruggiero, M. et al (2009) FASEB J 23:2898-2908). To differentiate into macrophages, bone marrow cells (10^6) were plated in 10-cm plates in 7 ml of BMDM medium (DMEM supplemented with 20% low-endotoxin fetal bovine serum, 30% L929-cell conditioned medium, 1% I-glutamine, 1% Pen/Strep, 0.5% Na pyruvate, and 0.1% β-mercaptoethanol), and fed with 2.5 ml of fresh medium every 2 days for 7 days. Human primary macrophages were prepared from peripheral blood monocytes obtained from healthy donors (Jacquel, A., et al. (2012). Blood 119, 4527-4531) in agreement with the French legislation on human biomedical research. All participants provided written informed consent attesting they had received all the information they needed about the study and they agreed in accordance with appropriate national regulations.
RNA expression by quantitative RT-PCR was carried out by using standard procedures. Briefly, for mRNA, total RNA was isolated from cells using Trizol and cDNA was synthesized with a random hexonucleotides using Superscript III (Invitrogen). For s-RNYs detection by quantitative RT-PCR a stem-loop quantitative RT-PCR method was used according to Chen et al. (Chen, C., et al. (2005). Nucleic acids research 33, e179). Briefly, total RNA was isolated from cells, tissue, or immunoprecipitation using Trizol (Invitrogen) according to the manufacturer's instructions. RNA extraction from extracellular medium, blood plasma, and serum was performed as previously described (Turchinovich, A., et al (2011). Nucleic acids research 39, 7223-7233). Briefly, 1.2 ml of Trizol LS were added to 0.4 ml of blood plasma, serum or media. Then (i) 5 pg of synthetic miRNA-39 from Caenorhabditis elegans (cel-miR-39) were added as a spike-in control for purification efficiency; (ii) 1.2 μl of glycogen (10 mg/ml) were added to enhance the efficiency of RNA column binding. Purification of extracted total RNA was performed with miRNeasy columns (Qiagen) according to the manufacturer's instructions. RNA was eluted in 30 μl of RNase-free water. cDNA was synthesized using a hairpin long oligonucleotide. This method allows the detection of the s-RNYs derived from only the 5′ end of the precursor by quantitative RT-PCR analysis, namely the s-RNY1-5p and s-RNY3-5p from mouse and s-RNY1-5p, s-RNY3-5p, and s-RNY4-5p from human. Quantitative RT-PCRs using Sybr Green and TaqMan (Invitrogen) for cel-miR-39 were performed on a StepONE system (Applied Biosystem). The primer sequences are detailed in Table 1. […]

[7] = system: human primary macrophages; test: Northern blot of s-RNYs in human primary macrophages; type: cell-based; settings: data not shown

Compound | s-RNY expression [5] | s-RNY expression [6] | other results
5′-GUUGUAUUGUUUAGCGAUU-3′ (listed as RNA, chemistry not given here) [siAgo2] | – | – | potential target mRNAs whose expression was Ago2 and s-RNYs dependent [1]: at least 20/32
CCCCCCCCCCCCCCCC(=O)O [PA, palmitic acid] | induced | increased markedly | NF-κB activation (IκBα degradation) (p38, NF-κB, JNK; after 9 hr of treatment): enhanced; p38 activation (p38 phosphorylation) (p38, NF-κB, JNK; starting by 9 hr): enhanced; enrichment of s-RNYs in extracellular environment compared to control (BMDMs [2]): ~100 fold; luciferase activity of the mutant reporter construct [3]: not affected; luciferase activity of the reporter construct containing the wt sequence [3]: repressed; apoptosis in macrophages treated with pro-atherogenic stimuli (BMDMs [4]): apoptosis activation; time by which s-RNY expression was induced ([5]; 0.25 mM PA, FIG. 14A): ≤ 9 h
CN[C@@H]1C[C@H]2O[C@@](C)([C@@H]1OC)n1c3ccccc3c3c4c(c5c6ccccc6n2c5c31)C(=O)NC4 [STS, staurosporine] | – | – | expression of s-RNYs (s-RNY1-5p, s-RNY1-3p, s-RNY3-5p and s-RNY4-5p) [7]: induced
CCCCC/C=C\C/C=C\CCCCCCCC(=O)O [linoleic acid] | did not induce | did not induce | –
CCCCCCCC/C=C\CCCCCCCC(=O)O [oleic acid] | did not induce | did not induce | –
CCCCCCCCCCCCCCCCCC(=O)O [stearic acid] | induced | increased markedly | –
C/C=C(/C)C(=O)O[C@H]1C(C)=C2[C@H]([C@@H]1OC(=O)CCCCCCC)[C@@](C)(OC(C)=O)C[C@H](OC(=O)CCC)[C@@]1(O)[C@H]2OC(=O)[C@@]1(C)O [thapsigargin] | no effect | – | –
